Source: ChEMBL document CHEMBL3120146, “Synthesis and biological evaluation of new boron-containing chlorin derivatives as agents for both photodynamic therapy and boron neutron capture therapy of cancer” (Bioorg Med Chem Lett, 2014)
The source made the active and inactive calls. No cut-off for these calls is given here.

Tests used:
[1] = test system: Tumour; test: Biodistribution in tumor of BALB/c mouse allografted with mouse Colon 26 cells at 10 umol/kg, iv measured at 3 hrs by spectrofluorometric analysis; format: ADME, organism-based; conditions: in vivo
[2] = test system: Colon 26; test: Cytotoxicity against mouse Colon 26 cells assessed as cell viability at 1 to 10 uM after 24 hrs by WST-8 assay; format: cell-based; conditions: colon 26, 24 h
[3] = test system: Lung; test: Biodistribution in BALB/c mouse lung allografted with mouse Colon 26 cells at 10 umol/kg, iv measured at 24 hrs by spectrofluorometric analysis; format: ADME, organism-based; conditions: in vivo
[4] = test system: Kidney; test: Biodistribution in BALB/c mouse kidney allografted with mouse Colon 26 cells at 10 umol/kg, iv measured at 24 hrs by spectrofluorometric analysis; format: ADME, organism-based; conditions: in vivo
[5] = test system: Serum; test: Biodistribution in BALB/c mouse serum allografted with mouse Colon 26 cells at 10 umol/kg, iv measured at 3 hrs by spectrofluorometric analysis; format: ADME, organism-based; conditions: in vivo
[6] = test system: Serum; test: Biodistribution in BALB/c mouse serum allografted with mouse Colon 26 cells at 10 umol/kg, iv measured at 6 to 12 hrs by spectrofluorometric analysis; format: ADME, organism-based; conditions: in vivo
[7] = test system: Serum; test: Biodistribution in BALB/c mouse serum allografted with mouse Colon 26 cells at 10 umol/kg, iv measured at 24 hrs by spectrofluorometric analysis; format: ADME, organism-based; conditions: in vivo
[8] = test system: Liver; test: Biodistribution in BALB/c mouse liver allografted with mouse Colon 26 cells at 10 umol/kg, iv measured at 24 hrs by spectrofluorometric analysis; format: ADME, organism-based; conditions: in vivo
[9] = test system: Muscle tissue; test: Biodistribution in BALB/c mouse muscle allografted with mouse Colon 26 cells at 10 umol/kg, iv measured at 24 hrs by spectrofluorometric analysis; format: ADME, organism-based; conditions: in vivo
[10] = test system: Liver; test: Biodistribution in BALB/c mouse liver allografted with mouse Colon 26 cells at 10 umol/kg, iv measured at 1 to 12 hrs by spectrofluorometric analysis; format: ADME, organism-based; conditions: in vivo
[11] = test system: Zone of skin; test: Biodistribution in BALB/c mouse skin allografted with mouse Colon 26 cells at 10 umol/kg, iv measured at 24 hrs by spectrofluorometric analysis; format: ADME, organism-based; conditions: in vivo
[12] = test system: Spleen; test: Biodistribution in BALB/c mouse spleen allografted with mouse Colon 26 cells at 10 umol/kg, iv measured at 24 hrs by spectrofluorometric analysis; format: ADME, organism-based; conditions: in vivo
[13] = test system: Brain; test: Biodistribution in BALB/c mouse brain allografted with mouse Colon 26 cells at 10 umol/kg, iv measured at 24 hrs by spectrofluorometric analysis; format: ADME, organism-based; conditions: in vivo
[14] = Solubility of the compound in water; format: physicochemical
[15] = test system: Serum; test: Biodistribution in BALB/c mouse serum allografted with mouse Colon 26 cells at 10 umol/kg, iv measured at 1 hr by spectrofluorometric analysis; format: ADME, organism-based; conditions: in vivo
[16] = test system: Colon 26; test: Antitumor activity against mouse Colon 26 cells allografted in BALB/c mouse assessed as tumor growth inhibition at 10 umol/kg, iv pretreated for 3 hrs followed by light-emitting diode irradiation at 660 nm wavelength measured after 3 to 7 days by photodynamic therapy; format: functional, organism-based; conditions: tested as the 10B-labelled form
[17] = test system: Tumour; test: Biodistribution in tumor of BALB/c mouse allografted with mouse Colon 26 cells at 10 umol/kg, iv measured at 12 hrs by spectrofluorometric analysis; format: ADME, organism-based; conditions: in vivo

SMILES | Drug uptake [1] | Activity [2] | Drug uptake [3] | Drug uptake [4] | Drug uptake [5] | Drug uptake [6] | Drug uptake [7] | Drug uptake [8] | Drug uptake [9] | Drug uptake [10] | Drug uptake [11] | Drug uptake [12] | Drug uptake [13] | solubility [14] | Drug uptake [15] | TGI [16] | Drug uptake [17]
C=Cc1c(C)c2cc3nc(cc4[nH]c(cc5nc(cc1[nH]2)C(C)(O)/C5=C\C=N\OCC)c(C)c4CCC(=O)NC(Cc1ccc([10B](O)O)cc1)C(=O)[O-])C(CCC(=O)NC(Cc1ccc([10B](O)O)cc1)C(=O)[O-])=C3C.[Na+].[Na+] (configuration not stated) | 0.27 pmol/mg | Non-toxic | Active | Active | 32.2 pmol/mg | Active | Not Active | Active | Active | Active | Active | Active | Active | 100 µg/mL | 7.6 pmol/mg | – | –
C=Cc1c(C)c2cc3nc(cc4[nH]c(cc5nc(cc1[nH]2)C(C)(O)/C5=C\C=N\OCC)c(C)c4CCC(=O)NC(Cc1ccc(B(O)O)cc1)C(=O)O)C(CCC(=O)NC(Cc1ccc(B(O)O)cc1)C(=O)O)=C3C (configuration not stated) | – | – | – | – | – | – | – | – | – | – | – | – | – | – | – | Active | –
C=Cc1c(C)c2cc3nc(cc4[nH]c(cc5nc(cc1[nH]2)C(C)(O)/C5=C\C=N\OCCCNC(=O)/C=C/c1ccc([10B](O)O)cc1)c(C)c4CCC(=O)N(CC(=O)[O-])CC(=O)[O-])C(CCC(=O)N(CC(=O)[O-])CC(=O)[O-])=C3C.[Na+].[Na+].[Na+].[Na+] (configuration not stated) | – | Non-toxic | Active | Active | – | – | Not Active | Active | Active | – | Active | Active | Active | 100 µg/mL | – | – | 0.21 pmol/mg
